Patent publication US12516056B2, “Compounds for inhibition of janus kinase 1” (MANKIND PHARMA LTD., priority 2019, dated 2026)
Where a name gives a salt, the structure may show the parent alone.

How the values were obtained:
Recombinant JAK3 = biological target: T1, Recombinant JAK3 (Homo sapiens, UniProt P52333); assay: JAK biochemical assay (LANCE Ultra TR-FRET), JAK3; details: recombinant JAK3, TR-FRET; read-out: Biochemical Assay (μM) JAK3
T1 construct: purchased Carna Biosciences
T1 sequence (P52333 1-1124): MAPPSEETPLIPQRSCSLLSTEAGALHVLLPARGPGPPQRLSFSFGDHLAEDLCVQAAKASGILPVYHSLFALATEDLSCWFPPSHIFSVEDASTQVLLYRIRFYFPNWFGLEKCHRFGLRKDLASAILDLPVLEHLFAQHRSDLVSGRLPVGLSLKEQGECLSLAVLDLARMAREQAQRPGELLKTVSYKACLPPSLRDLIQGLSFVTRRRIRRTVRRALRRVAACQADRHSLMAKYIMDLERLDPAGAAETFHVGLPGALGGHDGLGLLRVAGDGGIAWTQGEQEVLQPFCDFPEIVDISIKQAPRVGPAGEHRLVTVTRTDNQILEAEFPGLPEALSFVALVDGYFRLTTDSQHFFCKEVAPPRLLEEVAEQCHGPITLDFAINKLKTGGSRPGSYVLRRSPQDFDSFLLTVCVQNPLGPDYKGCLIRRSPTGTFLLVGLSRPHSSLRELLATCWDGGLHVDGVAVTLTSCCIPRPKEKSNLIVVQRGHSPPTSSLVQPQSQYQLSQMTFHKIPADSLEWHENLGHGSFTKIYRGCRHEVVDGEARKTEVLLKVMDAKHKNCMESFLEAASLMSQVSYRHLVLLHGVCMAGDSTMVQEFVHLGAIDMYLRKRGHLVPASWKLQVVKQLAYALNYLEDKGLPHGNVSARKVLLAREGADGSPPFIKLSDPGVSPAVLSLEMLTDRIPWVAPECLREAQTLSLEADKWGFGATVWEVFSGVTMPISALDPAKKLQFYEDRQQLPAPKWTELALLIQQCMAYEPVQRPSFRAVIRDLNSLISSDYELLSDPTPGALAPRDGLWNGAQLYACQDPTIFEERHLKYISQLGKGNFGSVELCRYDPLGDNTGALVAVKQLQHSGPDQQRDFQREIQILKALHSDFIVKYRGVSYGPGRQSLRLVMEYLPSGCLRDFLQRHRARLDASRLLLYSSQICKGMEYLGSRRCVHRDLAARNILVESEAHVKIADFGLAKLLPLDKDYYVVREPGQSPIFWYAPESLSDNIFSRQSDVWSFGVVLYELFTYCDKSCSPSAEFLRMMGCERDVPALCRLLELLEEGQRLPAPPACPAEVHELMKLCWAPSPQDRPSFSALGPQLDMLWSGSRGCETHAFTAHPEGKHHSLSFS
Method: (§1) Recombinant JAK1, JAK2, JAK3 and TYK2 (Carna Biosciences) were used to develop biochemical assays in 50 mM HEPES pH 7.5, 1 mM EGTA, 10 mM MgCl2, 2 mM DTT and 0.01% Tween-20. […] The intensity of the light emission is proportional to the level of ULight substrate phosphorylation. Compounds which interfere with JAK enzyme activity show a lesser substrate phosphorylation and values are projected in terms of % inhibition in comparison to vehicle control.

Recombinant JAK1 = biological target: T2, Recombinant JAK1 (Homo sapiens, UniProt P23458); assay: JAK biochemical assay (LANCE Ultra TR-FRET), JAK1; details: recombinant JAK1, TR-FRET; read-out: Biochemical Assay (μM) JAK1
T2 construct: purchased Carna Biosciences
Method: as §1

Recombinant JAK2 = biological target: T3, Recombinant JAK2 (Homo sapiens, UniProt O60674); assay: JAK biochemical assay (LANCE Ultra TR-FRET), JAK2; details: recombinant JAK2, TR-FRET; read-out: Biochemical Assay (μM) JAK2
T3 construct: purchased Carna Biosciences
Method: as §1

Recombinant TYK2 = biological target: T4, Recombinant TYK2 (Homo sapiens, UniProt P29597); assay: JAK biochemical assay (LANCE Ultra TR-FRET), TYK2; details: recombinant TYK2, TR-FRET; read-out: Biochemical Assay (μM) TYK2
T4 construct: purchased Carna Biosciences
Method: as §1

T2 sequence (P23458 whole entry): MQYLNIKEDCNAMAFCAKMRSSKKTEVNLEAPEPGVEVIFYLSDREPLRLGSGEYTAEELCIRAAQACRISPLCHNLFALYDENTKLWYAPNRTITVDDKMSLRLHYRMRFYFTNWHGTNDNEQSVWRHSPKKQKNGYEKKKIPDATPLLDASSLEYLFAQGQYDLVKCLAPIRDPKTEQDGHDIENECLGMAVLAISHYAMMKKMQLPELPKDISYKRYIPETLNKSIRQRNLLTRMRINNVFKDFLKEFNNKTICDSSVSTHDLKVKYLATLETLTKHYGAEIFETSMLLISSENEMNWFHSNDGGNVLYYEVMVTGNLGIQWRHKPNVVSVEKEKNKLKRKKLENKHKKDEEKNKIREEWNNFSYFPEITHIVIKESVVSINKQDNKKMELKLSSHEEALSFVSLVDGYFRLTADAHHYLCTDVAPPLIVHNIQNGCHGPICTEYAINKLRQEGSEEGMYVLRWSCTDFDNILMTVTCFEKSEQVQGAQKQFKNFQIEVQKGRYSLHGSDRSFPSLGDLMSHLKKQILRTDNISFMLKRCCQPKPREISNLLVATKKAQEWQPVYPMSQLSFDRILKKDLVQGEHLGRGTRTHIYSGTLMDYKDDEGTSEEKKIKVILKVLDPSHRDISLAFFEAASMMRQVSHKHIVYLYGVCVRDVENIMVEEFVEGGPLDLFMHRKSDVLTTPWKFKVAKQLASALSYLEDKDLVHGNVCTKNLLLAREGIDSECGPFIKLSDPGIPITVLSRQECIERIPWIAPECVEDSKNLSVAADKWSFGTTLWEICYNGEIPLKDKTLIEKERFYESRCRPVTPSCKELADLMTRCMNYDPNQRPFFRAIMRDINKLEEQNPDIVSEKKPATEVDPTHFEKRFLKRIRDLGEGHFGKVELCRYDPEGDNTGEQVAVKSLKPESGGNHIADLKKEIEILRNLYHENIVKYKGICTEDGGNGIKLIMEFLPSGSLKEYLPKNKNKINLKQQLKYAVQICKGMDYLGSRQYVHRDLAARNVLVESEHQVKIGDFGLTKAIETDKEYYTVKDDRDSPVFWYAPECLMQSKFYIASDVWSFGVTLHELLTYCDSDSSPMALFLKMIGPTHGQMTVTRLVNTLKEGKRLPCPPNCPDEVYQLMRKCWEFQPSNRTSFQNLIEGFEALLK
T3 sequence (O60674 whole entry): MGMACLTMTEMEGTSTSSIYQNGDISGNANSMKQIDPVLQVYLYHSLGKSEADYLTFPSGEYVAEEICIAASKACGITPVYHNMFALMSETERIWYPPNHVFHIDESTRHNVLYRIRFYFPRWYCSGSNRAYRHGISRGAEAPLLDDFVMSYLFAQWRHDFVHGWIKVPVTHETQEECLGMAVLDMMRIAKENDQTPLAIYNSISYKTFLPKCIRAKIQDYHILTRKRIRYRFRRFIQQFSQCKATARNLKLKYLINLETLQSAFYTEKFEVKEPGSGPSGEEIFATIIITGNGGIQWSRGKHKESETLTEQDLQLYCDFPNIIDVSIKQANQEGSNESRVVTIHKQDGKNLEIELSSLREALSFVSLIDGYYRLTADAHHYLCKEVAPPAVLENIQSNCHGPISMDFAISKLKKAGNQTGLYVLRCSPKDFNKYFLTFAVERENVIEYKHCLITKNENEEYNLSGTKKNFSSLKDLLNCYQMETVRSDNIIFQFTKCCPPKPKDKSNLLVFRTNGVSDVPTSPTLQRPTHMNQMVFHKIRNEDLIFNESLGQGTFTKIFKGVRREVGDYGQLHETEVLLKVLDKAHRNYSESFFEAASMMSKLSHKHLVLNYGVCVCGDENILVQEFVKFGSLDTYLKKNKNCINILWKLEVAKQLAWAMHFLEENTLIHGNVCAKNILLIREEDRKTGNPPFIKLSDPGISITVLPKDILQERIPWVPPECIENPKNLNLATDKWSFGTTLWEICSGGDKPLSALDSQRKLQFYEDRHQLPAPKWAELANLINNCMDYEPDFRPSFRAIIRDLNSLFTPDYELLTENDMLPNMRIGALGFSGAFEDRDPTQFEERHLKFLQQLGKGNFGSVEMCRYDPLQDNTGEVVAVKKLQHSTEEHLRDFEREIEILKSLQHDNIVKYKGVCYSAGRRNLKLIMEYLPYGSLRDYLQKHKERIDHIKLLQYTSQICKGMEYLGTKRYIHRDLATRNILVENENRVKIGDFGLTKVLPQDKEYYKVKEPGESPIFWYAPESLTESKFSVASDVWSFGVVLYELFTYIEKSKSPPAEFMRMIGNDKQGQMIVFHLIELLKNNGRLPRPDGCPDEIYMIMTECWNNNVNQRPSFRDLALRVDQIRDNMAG
T4 sequence (P29597 whole entry): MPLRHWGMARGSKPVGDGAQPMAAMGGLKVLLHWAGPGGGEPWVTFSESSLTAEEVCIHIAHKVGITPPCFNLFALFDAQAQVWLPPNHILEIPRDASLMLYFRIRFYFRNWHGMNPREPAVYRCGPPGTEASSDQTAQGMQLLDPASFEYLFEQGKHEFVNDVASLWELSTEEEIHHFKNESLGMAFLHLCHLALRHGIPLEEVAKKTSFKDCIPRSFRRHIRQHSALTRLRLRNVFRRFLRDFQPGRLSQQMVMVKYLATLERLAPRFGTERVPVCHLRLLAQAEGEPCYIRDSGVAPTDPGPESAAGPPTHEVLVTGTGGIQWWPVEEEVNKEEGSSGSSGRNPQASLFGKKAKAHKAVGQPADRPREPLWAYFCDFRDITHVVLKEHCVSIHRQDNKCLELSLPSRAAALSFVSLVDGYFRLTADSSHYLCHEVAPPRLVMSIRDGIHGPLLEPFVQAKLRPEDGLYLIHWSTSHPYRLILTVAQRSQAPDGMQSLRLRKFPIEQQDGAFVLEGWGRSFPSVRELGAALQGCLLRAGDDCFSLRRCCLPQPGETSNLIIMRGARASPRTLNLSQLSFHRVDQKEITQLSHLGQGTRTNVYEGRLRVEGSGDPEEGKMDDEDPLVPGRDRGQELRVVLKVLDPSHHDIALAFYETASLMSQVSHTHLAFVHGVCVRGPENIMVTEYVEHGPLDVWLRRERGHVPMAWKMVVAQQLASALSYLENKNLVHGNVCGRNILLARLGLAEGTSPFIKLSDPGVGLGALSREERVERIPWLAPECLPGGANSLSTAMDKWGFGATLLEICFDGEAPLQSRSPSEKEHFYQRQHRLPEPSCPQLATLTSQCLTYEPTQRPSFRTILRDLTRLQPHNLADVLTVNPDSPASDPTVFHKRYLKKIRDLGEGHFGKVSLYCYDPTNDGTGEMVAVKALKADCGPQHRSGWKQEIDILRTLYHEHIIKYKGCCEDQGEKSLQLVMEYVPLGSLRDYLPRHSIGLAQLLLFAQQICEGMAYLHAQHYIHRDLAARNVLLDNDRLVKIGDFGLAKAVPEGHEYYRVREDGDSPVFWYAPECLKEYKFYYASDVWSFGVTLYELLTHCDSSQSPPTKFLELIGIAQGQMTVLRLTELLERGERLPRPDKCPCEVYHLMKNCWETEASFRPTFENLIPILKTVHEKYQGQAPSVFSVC

IC50 (Recombinant JAK3) [µM] | IC50 (Recombinant JAK1) [µM] | IC50 (Recombinant JAK2) [µM] | IC50 (Recombinant TYK2) [µM] | SMILES
> 10 | > 10 | > 10 | > 10 | O=C(CN1CCN(c2ccnc3[nH]c(=O)[nH]c23)CC1)NCC(F)(F)F [Example 1025, N-(2,2,2-trifluoroethyl)-2-(4-(2,3-dihydro-2-oxo-1H-imidazo[4,5-b]pyridin-7-yl)piperazin-1-yl)acetamide]
> 1 | > 1 | > 1 | > 1 | O=C(NCC(F)(F)F)n1ccc(-c2ccnc3[nH]c(=O)[nH]c23)c1 [Example 1028, N-(2,2,2-trifluoroethyl)-3-(2,3-dihydro-2-oxo-1H-imidazo[4,5-b]pyridin-7-yl)-1H-pyrrole-1-carboxamide]
> 10 | > 10 | > 10 | > 10 | Cn1c(=O)[nH]c2nccc(-c3cnn(C(=O)NCC(F)(F)F)c3)c21 [Example 1029, N-(2,2,2-trifluoroethyl)-4-(2,3-dihydro-1-methyl-2-oxo-1H-imidazo[4,5-b]pyridin-7-yl)-1H-pyrazole-1-carboxamide]
> 1 | > 1 | > 1 | > 1 | O=C(CCC(F)(F)F)n1cc(-c2ccnc3[nH]c(=O)[nH]c23)cn1 [Example 1031, 7-(1-(4,4,4-trifluorobutanoyl)-1H-pyrazol-4-yl)-1H-imidazo[4,5-b]pyridin-2(3H)-one]
> 10 | > 1 | > 1 | > 10 | O=C(NCC1CCCC1)n1cc(-c2ccnc3[nH]c(=O)[nH]c23)cn1 [Example 1034, N-(cyclopentylmethyl)-4-(2,3-dihydro-2-oxo-1H-imidazo[4,5-b]pyridin-7-yl)-1H-pyrazole-1-carboxamide]
> 10 | > 10 | > 10 | > 10 | N#CCNC(=O)n1cc(-c2ccnc3[nH]c(=O)[nH]c23)cn1 [Example 1035, N-(cyanomethyl)-4-(2,3-dihydro-2-oxo-1H-imidazo[4,5-b]pyridin-7-yl)-1H-pyrazole-1-carboxamide hydrochloride]
> 10 | > 10 | > 10 | > 10 | O=C(NCC(F)(F)F)n1cc(-c2cccc3[nH]c(=O)[nH]c23)cn1 [Example 1036, N-(2,2,2-trifluoroethyl)-4-(2,3-dihydro-2-oxo-1H-benzo[d]imidazol-4-yl)-1H-pyrazole-1-carboxamide]
> 10 | > 10 | > 1 | > 10 | CCn1c(=O)[nH]c2nccc(-c3cnn(C(=O)NCC(F)(F)F)c3)c21 [Example 1042, 4-(1-ethyl-2,3-dihydro-2-oxo-1H-imidazo[4,5-b]pyridin-7-yl)-N-(2,2,2-trifluoroethyl)-1H-pyrazole-1-carboxamide]
> 1 | > 1 | > 1 | > 1 | O=C1Cc2c(-c3cnn(C(=O)NCC(F)(F)F)c3)ccnc2N1 [Example 1045, N-(2,2,2-trifluoroethyl)-4-(2,3-dihydro-2-oxo-1H-pyrrolo[2,3-b]pyridin-4-yl)-1H-pyrazole-1-carboxamide]
> 0.5 | > 0.5 | > 0.5 | > 1 | N#CCC1CCN(C(=O)n2cc(-c3ccnc4[nH]c(=O)[nH]c34)cn2)C1 (stereo not shown) [Example 1057, 2-(1-(4-(2-oxo-2,3-dihydro-1H-imidazo[4,5-b]pyridin-7-yl)-1H-pyrazole-1-carbonyl)pyrrolidin-3-yl)acetonitrile]
> 10 | > 1 | > 1 | > 10 | N#CC1CN(C(=O)CNC(=O)n2cc(-c3ccnc4[nH]c(=O)[nH]c34)cn2)C1 [Example 1059, N-(2-(3-cyanoazetidin-1-yl)-2-oxoethyl)-4-(2-oxo-2,3-dihydro-1H-imidazo[4,5-b]pyridin-7-yl)-1H-pyrazole-1-carboxamide]
< 0.5 | < 0.5 | < 0.5 | < 0.5 | N#CCC(NC(=O)n1cc(-c2ccnc3[nH]c(=O)[nH]c23)cn1)C1CCOCC1 (stereo not shown) [Example 1062, N-(2-cyano-1-(tetrahydro-2H-pyran-4-yl)ethyl)-4-(2,3-dihydro-2-oxo-1H-imidazo[4,5-b]pyridin-7-yl)-1H-pyrazole-1-carboxamide]
> 0.5 | > 0.5 | < 0.5 | < 0.5 | N#CC(NC(=O)n1cc(-c2ccnc3[nH]c(=O)[nH]c23)cn1)c1ccccc1 (stereo not shown) [Example 1063, N-(cyano(phenyl)methyl)-4-(2,3-dihydro-2-oxo-1H-imidazo[4,5-b]pyridin-7-yl)-1H-pyrazole-1-carboxamide]
> 0.5 | > 0.5 | < 0.5 | > 0.5 | N#CCC(NC(=O)n1cc(-c2ccnc3[nH]cnc23)cn1)C1CCOCC1 (stereo not shown) [Example 1065, N-(2-cyano-1-(tetrahydro-2H-pyran-4-yl)ethyl)-4-(3H-imidazo[4,5-b]pyridin-7-yl)-1H-pyrazole-1-carboxamide]
> 0.5 | > 10 | > 1 | > 1 | CCCS(=O)(=O)NC1CCN(C(=O)n2cc(-c3ccnc4[nH]cnc34)cn2)C1 (stereo not shown) [Example 1069, N-(1-(4-(3H-imidazo[4,5-b]pyridin-7-yl)-1H-pyrazole-1-carbonyl)pyrrolidin-3-yl)propane-1-sulfonamide]
> 1 | > 10 | > 1 | > 10 | N#Cc1ccc(-n2cc(-c3ccnc4[nH]cnc34)cn2)nc1 [Example 1079, 6-(4-(3H-imidazo[4,5-b]pyridin-7-yl)-1H-pyrazol-1-yl)pyridine-3-carbonitrile]
< 0.5 | > 0.5 | > 0.5 | > 1 | OCc1ccc(-n2cc(-c3ccnc4[nH]cnc34)cn2)nc1 [Example 1083, (6-(4-(3H-imidazo[4,5-b]pyridin-7-yl)-1H-pyrazol-1-yl)pyridin-3-yl)methanol]
> 1 | > 1 | > 1 | > 10 | c1cc(-c2cnn(-c3ccc(CN4CCOCC4)cn3)c2)c2nc[nH]c2n1 [Example 1085, 7-(1-(5-(morpholinomethyl)pyridin-2-yl)-1H-pyrazol-4-yl)-3H-imidazo[4,5-b]pyridine]
> 1 | > 0.5 | > 1 | > 10 | N#CC1CN(Cc2ccc(-n3cc(-c4ccnc5[nH]cnc45)cn3)nc2)C1 [Example 1087, 1-((6-(4-(3H-imidazo[4,5-b]pyridin-7-yl)-1H-pyrazol-1-yl)pyridin-3-yl)methyl)azetidine-3-carbonitrile]
> 1 | > 1 | > 1 | > 1 | N#CCNC(=O)c1ccc(-n2cc(-c3ccnc4[nH]cnc34)cn2)nc1 [Example 1088, 6-(4-(3H-imidazo[4,5-b]pyridin-7-yl)-1H-pyrazol-1-yl)-N-(cyanomethyl)pyridine-3-carboxamide]
> 1 | > 0.5 | > 0.5 | > 1 | N#CC1CN(C(=O)c2ccc(-n3cc(-c4ccnc5[nH]cnc45)cn3)nc2)C1 [Example 1089, 1-(6-(4-(3H-imidazo[4,5-b]pyridin-7-yl)-1H-pyrazol-1-yl)nicotinoyl)azetidine-3-carbonitrile]
> 0.5 | > 0.5 | > 1 | > 10 | N#CCC(=O)NCc1ccc(-n2cc(-c3ccnc4[nH]cnc34)cn2)nc1 [Example 1091, N-((6-(4-(3H-imidazo[4,5-b]pyridin-7-yl)-1H-pyrazol-1-yl)pyridin-3-yl)methyl)-2-cyanoacetamide]
